Patent US20020052491A1, “Method for the production of 2-chloro-2' -deoxyadenosine (cladribine) and its 3,5-di-O-p-toluoyl derivative” (priority 1999, published 2002)
Values belong to the compound of their own block, whether it stands above or below them.

Experiments:
[1] = tested on: Multiple myeloma cells; settings: cited from earlier work
[2] = tested on: erythroid colony forming cells (CFU-E); settings: cited from earlier work
[3] = tested on: Non-Hodgkin's lymphoma; settings: 50% growth inhibition, read-out: IC50 (nmol/L)**; cited from earlier work
[4] = tested on: myeloid cells; settings: cited from earlier work
[5] = tested on: granulocyte-macrophage colony forming units and erythrocyte burst forming units; settings: more immature progenitors (granulocyte-macrophage colony forming units and erythrocyte burst forming units); approximately; cited from earlier work
[6] = tested on: Erythroid progenitor cells; settings: decreases as maturation state rises; cited from earlier work
[7] = tested on: Acute myelogenous leukemia; settings: 50% growth inhibition, read-out: IC50 (nmol/L)**; cited from earlier work
[8] = tested on: Hairy cell leukemia; settings: 50% growth inhibition, read-out: IC50 (nmol/L)**; cited from earlier work
[9] = tested on: lymphoblastoid leukemia cells; settings: 5 nmol/L; cited from earlier work
[10] = tested on: DAUDI cell line; assay: in vitro sensitivity, DAUDI cell line; assay type: cell-based; settings: Homo sapiens, 50% growth inhibition, Data Bio Sidus, read-out: IC50 (nmol/L)**
Description: (§1) The in vitro effect of cladribine (2-CdA) has been studied on a number of cell lines, showing different degrees of sensitivity, represented by the IC50 value (concentration required to inhibit 50% of growth) on a case-by-case basis.

[11] = tested on: Chronic lymphocytic leukemia; settings: 50% growth inhibition, read-out: IC50 (nmol/L)**; cited from earlier work
[12] = tested on: human melanoma cell lines; settings: some human melanoma cell lines; cited from earlier work
[13] = tested on: Mature erythroid colony forming units (mBFU-E); settings: cited from earlier work
[14] = tested on: dividing and non-dividing cells; settings: cited from earlier work
[15] = tested on: T cells; settings: 50% growth inhibition, read-out: IC50 (nmol/L)**; cited from earlier work
[16] = tested on: T lymphocyte colony forming cells; settings: cited from earlier work
[17] = tested on: B cells; settings: 50% growth inhibition, read-out: IC50 (nmol/L)**; cited from earlier work
[18] = tested on: myeloid progenitor cell; settings: dose-dependent basis; cited from earlier work
[19] = tested on: Acute lymphoblastic leukemia; settings: drug concentration required to inhibit 50% of growth, read-out: IC50 (nmol/L)**; cited from earlier work
[20] = tested on: neuroblastoma cell line; settings: cited from earlier work
[21] = tested on: Peripheral lymphocytes; settings: cited from earlier work
[22] = tested on: cell lines of bone tumors; settings: in vitro; cited from earlier work
[23] = tested on: Epstein Barr B lymphoblastoid cell lines; assay: in vitro sensitivity, Epstein Barr B lymphoblastoid cell lines; assay type: cell-based; settings: 50% growth inhibition, no source mark printed, read-out: IC50 (nmol/L)**
Description: as §1

[24] = tested on: Normal bone marrow; settings: cited from earlier work
[25] = H-9 proton; cited from earlier work

IC50 [10]: 210 nmol/L
SMILES: Nc1nc(Cl)nc2c1ncn2[C@H]1C[C@H](O)[C@@H](CO)O1 [Cladribine, 2-chloro-2′-deoxyadenosine]
IC50 ([1]; Multiple myeloma, 50% growth inhibition, read-out: IC50 (nmol/L)**): 1750 nmol/L
activity on multiple myeloma cells ([1]; in vitro): low activity
IC50 [2]: 56 nM
IC50 [3]: 87 nmol/L
IC50 [4]: 5 to 70 nM
IC50 [5]: 16 to 20 nM
sensitivity of erythroid progenitor cells [6]: dose-dependent sensitivity
IC50 [7]: 20 nmol/L
IC50 [8]: 31 nmol/L
thymidine uptake [9]: inhibits
IC50 [11]: 39 nmol/L
IC37 [12]: 12 to 22 nmol/L
IC50 [13]: 38 nM
activity in dividing and non-dividing cells [14]: active
IC50 [15]: 3 to 338 nmol/L
concentration needed for a complete inhibition of lymphoid colony formation ([16]; complete inhibition): 1280 nmol/L
T lymphocyte colony forming cells ([16]; dose-dependent basis): inhibits
IC50 [17]: 6 to 67 nmol/L
myeloid progenitor cell growth [18]: inhibits
IC50 [19]: 34 nmol/L
IC50 [20]: 60 nM
viability of peripheral lymphocytes ([21]; 100 nmol/l during 24 hours, followed by washing): retain viability
cells die ([21]; seven-day incubation with 8 nmol/L): 60%
activity on cell lines of bone tumors [22]: low activity
IC50 [23]: 200 nmol/L
granulocyte and macrophage colony formation ([24]; 5 nmol/L, normal bone marrow): no effect
IC50 ([24]; Normal bone marrow, 50% growth inhibition, read-out: IC50 (nmol/L)**): 15 nmol/L

SMILES: Nc1ncnc2nc[nH]c12 [adenine]
pKa [25]: 9.80
